This is an account of results in patent publication US20230339937A1, “CONDENSED RING COMPOUNDS THAT INHIBIT H-PGDS” (SATO PHARMACEUTICAL CO., LTD., priority 2020, published 2023).

The assay concerns the target T1, Recombinant human H-PGDS (Homo sapiens, UniProt O60760).
T1 construct: made in house; host or cells: E. coli
In words: H-PGDS inhibitory activity (prostaglandin D2 production from prostaglandin H2, measured by LC-MS/MS). It counts as biochemical. The settings on record: recombinant human H-PGDS 1.0 nM expressed in E. coli; prostaglandin H2 25 μM; preincubated 15 minutes on ice, reacted on ice for 1 minute; concentration that inhibits prostaglandin D2 production by 50%. The gist of the method:
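PGD2 formed from 25 µM prostaglandin H2 during a 1-min on-ice reaction was measured by LC-MS/MS after an FeCl2/citric acid stop. The enzyme was 1.0 nM E. coli-expressed human H-PGDS in Tris-HCl pH 8.0 buffer with MgCl2, reduced glutathione and γ-globulin, preincubated with compound for 15 min on ice. Production was normalised to DMSO controls minus the no-enzyme background.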

T1 sequence (O60760 whole entry): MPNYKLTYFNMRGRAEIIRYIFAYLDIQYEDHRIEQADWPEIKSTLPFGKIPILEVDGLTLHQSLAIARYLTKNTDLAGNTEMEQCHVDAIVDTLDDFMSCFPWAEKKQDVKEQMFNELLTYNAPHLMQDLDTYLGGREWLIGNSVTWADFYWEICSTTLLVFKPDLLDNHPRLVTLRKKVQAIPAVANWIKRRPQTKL

As to `O=C(N[C@H]1CCN(c2ccncn2)C1)c1ccc(-c2nccc3occc23)cc1` [Example 229, (S)-4-(furo[3,2-c]pyridin-4-yl)-N-[1-(pyrimidin-4-yl)pyrrolidin-3-yl]benzamide], the 50% inhibitory concentration (IC50) was found to be 1.5 nM.

As for `COCCNC(=O)c1ccc(-c2nccc3occc23)cc1` [Example 78, 4-(furo[3,2-c]pyridin-4-yl)-N-(2-methoxyethyl) benzamide], the IC50 was determined as 50 nM.

As for `Cc1cc2occc2c(-c2ccc(C(=O)NC3CCN(c4nnnn4C)CC3)cc2)n1` [Example 330, N-[1-(1-methyl-1H-tetrazol-5-yl)piperidin-4-yl]-4-(6-methylfuro[3,2-c]pyridin-4-yl)benzamide], the IC50 was 1.7 nM.

As to `O=C(Nc1ccc(N2CCC(C(=O)N3CCOCC3)CC2)cc1)c1ccc(-c2nccc3occc23)cc1` [Example 222, 4-(furo[3,2-c]pyridin-4-yl)-N-(4-[4-(morpholine-4-carbonyl)piperidin-1-yl]phenyl)benzamide], the 50% inhibitory concentration (IC50) amounted to 2.3 nM.

With `O=C(NC1CCN(c2nnnn2C2CC2)CC1)c1ccc(-c2nccc3occc23)cc1` [Example 243, N-[1-(1-cyclopropyl-1H-tetrazol-5-yl)piperidin-4-yl]-4-(furo[3,2-c]pyridin-4-yl)benzamide], the half-maximal inhibitory concentration (IC50) is 2 nM.

`Cn1ccnc1N1CCC(NC(=O)c2ccc(-c3nccc4occc34)cc2)CC1` [Example 251, 4-(furo[3,2-c]pyridin-4-yl)-N-[1-(1-methyl-1H-imidazol-2-yl)piperidin-4-yl]benzamide]: the IC50 amounted to 2 nM.

With `CC(C)(O)[C@H]1CC[C@@H](NC(=O)c2ccc(-c3nccc4occc34)cc2)CC1` [Example 354, 4-(furo[3,2-c]pyridin-4-yl)-N-[cis-4-(2-hydroxypropan-2-yl)cyclohexyl]benzamide], the IC50 worked out at 35 nM.

On to `COCCCNC(=O)c1ccc(-c2nccc3occc23)cc1` [Example 79, 4-(furo[3,2-c]pyridin-4-yl)-N-(3-methoxypropyl) benzamide], for which the IC50 came to 27 nM.

In the case of `O=C(NC1CCN(c2ccncn2)CC1)c1ccc(-c2nccc3occc23)cc1` [Example 171, 4-(furo[3,2-c]pyridin-4-yl)-N-[1-(pyrimidin-4-yl)piperidin-4-yl]benzamide], the IC50 was found to be 1.9 nM.

For `O=C(NC1CCN(c2ccccn2)CC1)c1ccc(-c2nccc3occc23)cc1` [Example 118, 4-(furo[3,2-c]pyridin-4-yl)-N-[1-(pyridin-2-yl)piperidin-4-yl]benzamide], the IC50 turned out to be 0.45 nM.

For `CC1(NC(=O)c2ccc(-c3nccc4occc34)cc2)CCC(O)CC1` (centres unmarked) [Example 276, 4-(furo[3,2-c]pyridin-4-yl)-N-(4-hydroxy-1-methylcyclohexyl)benzamide], the IC50 stood at 12 nM.

For `CCC(O)CNC(=O)c1ccc(-c2nccc3[nH]ccc23)cc1` (centres unmarked) [Example 33, N-(2-hydroxybutyl)-4-(1H-pyrrolo[3,2-c]pyridin-4-yl)benzamide], the half-maximal inhibitory concentration (IC50) is 1.1 nM.

Turning to `O=C(NC1CCN(c2cccc3nccn23)CC1)c1ccc(-c2nccc3occc23)cc1` [Example 238, 4-(furo[3,2-c]pyridin-4-yl)-N-[1-(imidazo[1,2-a]pyridin-5-yl)piperidin-4-yl]benzamide], the IC50 was 3.6 nM.

Consider `O=C(NCc1ccccn1)c1ccc(-c2nccc3occc23)cc1` [Example 93, 4-(furo[3,2-c]pyridin-4-yl)-N-(pyridin-2-ylmethyl) benzamide], for which the IC50 was 32 nM.

Turning to `Cc1cc(C(=O)N[C@H]2CC[C@H](C(C)(C)O)CC2)ccc1-c1nccc2occc12` [Example 132, 4-(furo[3,2-c]pyridin-4-yl)-N-[trans-4-(2-hydroxypropan-2-yl)cyclohexyl]-3-methylbenzamide], the IC50 was determined as 74 nM.

Consider `CC(C)[C@]1(O)CC[C@@H](NC(=O)c2ccc(-c3nccc4occc34)cc2)CC1` [Example 292, 4-(furo[3,2-c]pyridin-4-yl)-N-(cis-4-hydroxy-4-isopropylcyclohexyl)benzamide], for which the IC50 amounted to 1.9 nM.

With `O=C(N[C@H]1CC[C@@H](OCC2(O)CC2)CC1)c1ccc(-c2nccc3occc23)cc1` [Example 353, 4-(furo[3,2-c]pyridin-4-yl)-N-(cis-4-[(1-hydroxycyclopropyl)methoxy]cyclohexyl)benzamide], the IC50 stood at 1.4 nM.

As for `O=C(NCCCCO)c1ccc(-c2nccc3occc23)cc1` [Example 96, 4-(furo[3,2-c]pyridin-4-yl)-N-(4-hydroxybutyl) benzamide], the concentration for half-maximal inhibition (IC50) came out at 17 nM.

Turning to `Cc1cc2occc2c(-c2ccc(C(=O)N[C@H]3CC[C@H](C(C)(C)O)CC3)cc2F)n1` [Example 321, 3-fluoro-N-[trans-4-(2-hydroxypropan-2-yl)cyclohexyl]-4-(6-methylfuro[3,2-c]pyridin-4-yl)benzamide], the IC50 was found to be 5.5 nM.

Consider `N#CC12CCC(NC(=O)c3ccc(-c4nccc5occc45)cc3)(CC1)CC2` [Example 351, N-(4-cyanobicyclo[2.2.2]octan-1-yl)-4-(furo[3,2-c]pyridin-4-yl)benzamide], for which the IC50 worked out at 1.3 nM.

Consider `NS(=O)(=O)c1cnc(N2CCC(NC(=O)c3ccc(-c4nccc5occc45)cc3)CC2)nc1` [Example 177, 4-(furo[3,2-c]pyridin-4-yl)-N-[1-(5-sulfamoylpyrimidin-2-yl)piperidin-4-yl]benzamide], for which the half-maximal inhibitory concentration (IC50) amounted to 1.2 nM.

Regarding `Cc1c(CNC(=O)c2ccc(-c3nccc4[nH]ccc34)cc2)cnn1C` [Example 42, N-[(1,5-dimethyl-1H-pyrazol-4-yl)methyl]-4-(1H-pyrrolo[3,2-c]pyridin-4-yl)benzamide], the IC50 worked out at 0.74 nM.

Take `O=C(NC[C@H]1C[C@@H](O)C1)c1ccc(-c2nccc3occc23)cc1` [Example 219, 4-(furo[3,2-c]pyridin-4-yl)-N-[(cis-3-hydroxycyclobutyl)methyl]benzamide]: the 50% inhibitory concentration (IC50) was 12 nM.

As for `O=C(N[C@H]1CCN(c2cnc(CO)cn2)C1)c1ccc(-c2nccc3occc23)cc1` [Example 198, (S)-4-(furo[3,2-c]pyridin-4-yl)-N-{1-[5-(hydroxymethyl)pyrazin-2-yl]pyrrolidin-3-yl}benzamide], the IC50 came to 2.3 nM.

Take `Cc1cc(S(N)(=O)=O)ccc1NC(=O)c1ccc(-c2nccc3occc23)cc1` [Example 117, 4-(furo[3,2-c]pyridin-4-yl)-N-(2-methyl-4-sulfamoylphenyl) benzamide]: the IC50 turned out to be 12 nM.

Turning to `O=C1CCC(NC(=O)c2ccc(-c3nccc4occc34)cc2)CC1` [Example 303, 4-(furo[3,2-c]pyridin-4-yl)-N-(4-oxocyclohexyl)benzamide], the concentration for half-maximal inhibition (IC50) stood at 2.1 nM.

In the case of `O=C(NCc1cccc(Cl)c1)c1ccc(-c2nccc3[nH]ccc23)cc1` [Example 57, N-(3-chlorobenzyl)-4-(1H-pyrrolo[3,2-c]pyridin-4-yl)benzamide], the IC50 amounted to 1.4 nM.

Turning to `O=C(N[C@@H]1CN(c2ncc(CO)cn2)C[C@@H]1O)c1ccc(-c2nccc3occc23)cc1` [Example 208, 4-(furo[3,2-c]pyridin-4-yl)-N-((3R,4S)-4-hydroxy-1-[5-(hydroxymethyl)pyrimidin-2-yl]pyrrolidin-3-yl)benzamide], the IC50 came to 14 nM.

On to `CC(C)(O)[C@@H]1CC[C@@H](NC(=O)c2ccc(-c3nccc4occc34)cc2)CO1` [Example 214, 4-(furo[3,2-c]pyridin-4-yl)-N-[(3R,6S)-6-(2-hydroxypropan-2-yl)tetrahydro-2 H-pyran-3-yl]benzamide], for which the IC50 is 3.4 nM.

As a reminder, the IC50 is the concentration that gives 50% inhibition.
